In data set [1] the test system is Mycobacterium tuberculosis. Description: Antimycobacterial activity against Mycobacterium tuberculosis H37Rv in 7H9/ADC/Tween medium measured at day 14 by Alamar Blue assay. The data set is classed as functional. Particulars: 336 h. Background: The colour change of resazurin is a common sign of viable cells or microbes.
Data set [2] can be described thus: Kinetic solubility of the compound at pH 7.4 after 2 hrs by shake flask method-based HPLC-DAD analysis. The data set is classed as physicochemical. Particulars: buffer, read-out: Kinetic_solubility.
In data set [3] the test system is Mycobacterium tuberculosis. The experiment in a line: Antimycobacterial activity against Mycobacterium tuberculosis H37Rv in GAST-Fe medium measured at day 14 by Alamar Blue assay. The data set is classed as functional. Particulars: 336 h.
Data set [4] concerns Mycobacterium tuberculosis. Description: Antimycobacterial activity against Mycobacterium tuberculosis H37Rv in GAST medium with low Fe level measured at day 14 by Alamar Blue assay. The data set is classed as functional. The note with it: 336 h.
In another data set the test system is CHO. The experiment in a line: Cytotoxicity against CHO cells assessed as cell viability by MTT assay. The data set is classed as cell-based. Particulars: Cricetulus griseus.

The structures appear in SMILES notation. Converted amounts (≈) assume the structure as drawn. Bounds are passed on as bounds.

The term MIC99 denotes an inhibitory concentration at the 99% level, which refers to growth in some studies and to a panel of isolates in others. One may read the IC50 as the concentration that inhibits the measured activity by half.

`Cc1cc(NCc2ccccn2)n2ncc(-c3ccc(Cl)cc3)c2n1` registered an MIC99 in data set [1] of 10 µM (≈ 3.5 µg/mL). The solubility kinetic at 2 h in data set [2] is under 5 µM.
With `Cc1cc(NCc2ccccn2)n2ncc(-c3ccccc3)c2n1`, in data set [1], the MIC99 was found to be 10 µM (≈ 3.15 µg/mL). For the same compound, the solubility kinetic at 2 h in data set [2] is under 5 µM.
In the case of `Cc1cc(NCc2ccccn2)n2ncc(-c3ccc(F)cc3)c2n1`, the MIC99 in data set [1] is 5 µM (≈ 1.67 µg/mL). In addition, the solubility kinetic at 2 h in data set [2] is under 5 µM.
`Cc1cc(NCc2cccnc2)n2nc(C)c(-c3ccccc3)c2n1` came in with an MIC99 in data set [1] of over 160 µM. Moreover, in data set [2], the solubility kinetic at 2 h was determined as 110 µM (≈ 36.3 µg/mL).
For `Cc1cc(NCc2ccncc2)n2nc(C)c(-c3ccccc3)c2n1` the same measures were over 160 µM and 134 µM (≈ 44 µg/mL).
`Cc1cc(NCc2ncccn2)n2nc(C)c(-c3ccccc3)c2n1`: the MIC99 in data set [1] was determined as 80 µM (≈ 26.4 µg/mL). For the same compound, the solubility kinetic at 2 h in data set [2] came to 37.9 µM (≈ 12.5 µg/mL).
In the case of `Cc1cc(NCc2cnccn2)n2nc(C)c(-c3ccccc3)c2n1`, the MIC99 in data set [1] was found to be 80 µM (≈ 26.4 µg/mL). Further, the solubility kinetic at 2 h in data set [2] worked out at 7.1 µM (≈ 2.35 µg/mL).
Compound `Cc1cc(NCCc2ccccn2)n2nc(C)c(-c3ccccc3)c2n1` displayed an MIC99 in data set [1] of over 160 µM. Moreover, in data set [2], the solubility kinetic at 2 h was under 5 µM.
`Cc1cc(NCCCc2ccccn2)n2nc(C)c(-c3ccccc3)c2n1` came in with an MIC99 in data set [1] of 80 µM (≈ 28.6 µg/mL). The solubility kinetic at 2 h in data set [2] came out at 5.9 µM (≈ 2.11 µg/mL).
`Cc1cc(Nc2ccccn2)n2nc(C)c(-c3ccccc3)c2n1` came in with an MIC99 in data set [1] of over 160 µM. For the same compound, the solubility kinetic at 2 h in data set [2] was under 5 µM.
As to `Cc1cc(N(C)Cc2ccccn2)n2nc(C)c(-c3ccccc3)c2n1`, the MIC99 in data set [1] is over 160 µM. In addition, the solubility kinetic at 2 h in data set [2] stood at 17.5 µM (≈ 6.01 µg/mL).
In the case of `Cc1cc(OCc2ccccn2)n2nc(C)c(-c3ccccc3)c2n1`, the MIC99 in data set [1] was over 160 µM. In addition, the solubility kinetic at 2 h in data set [2] was determined as 25.6 µM (≈ 8.46 µg/mL).
In the case of `Cc1cc(NCc2ncc[nH]2)n2nc(C)c(-c3ccccc3)c2n1`, the MIC99 in data set [1] was found to be 37 µM (≈ 11.8 µg/mL). The solubility kinetic at 2 h in data set [2] is under 5 µM.
In data set [1], `Cc1cc(NCc2c[nH]cn2)n2nc(C)c(-c3ccccc3)c2n1` registered an MIC99 of over 160 µM. Besides, the solubility kinetic at 2 h in data set [2] came out at 14.6 µM (≈ 4.65 µg/mL).
The compound `Cc1cccc(CNc2cc(C)nc3c(-c4ccccc4)c(C)nn23)n1` came in with an MIC99 in data set [1] of over 160 µM. The solubility kinetic at 2 h in data set [2] was under 5 µM.
For `Cc1cc(NCc2ccco2)n2nc(C)c(-c3ccccc3)c2n1` the same measures were over 160 µM and under 5 µM.
For the compound `Cc1cc(NCc2cccs2)n2nc(C)c(-c3ccccc3)c2n1`, the MIC99 in data set [1] is over 160 µM. Besides, in data set [2], the solubility kinetic at 2 h is under 5 µM.
In data set [1], `Cc1cc(NCc2nccs2)n2nc(C)c(-c3ccccc3)c2n1` displayed an MIC99 of over 160 µM. The solubility kinetic at 2 h in data set [2] turned out to be 108 µM (≈ 36.1 µg/mL).
Compound `Cc1cc(NCc2ccc3ccccc3n2)n2nc(C)c(-c3ccccc3)c2n1` had an MIC99 in data set [1] of over 160 µM. The solubility kinetic at 2 h in data set [2] is under 5 µM.
Consider `Cc1cc(NCc2ccccn2)n2nc(C)c(-c3ccc(F)cc3)c2n1`, for which the MIC99 in data set [1] turned out to be 5 µM (≈ 1.74 µg/mL). Besides, the solubility kinetic at 2 h in data set [2] is under 5 µM.
For `COc1ccc(-c2c(C)nn3c(NCc4ccccn4)cc(C)nc23)cc1` the same measures were 20 µM (≈ 7.19 µg/mL) and under 5 µM.
In turn, `COc1ccc(-c2cnn3c(NCc4ccccn4)cc(C)nc23)cc1` displayed an MIC99 in data set [1] of 20 µM (≈ 6.91 µg/mL). In addition, the solubility kinetic at 2 h in data set [2] is under 5 µM.
Compound `Cc1ccc(-c2cnn3c(NCc4ccccn4)cc(C)nc23)cc1` yielded an MIC99 in data set [1] of 5 µM (≈ 1.65 µg/mL). The solubility kinetic at 2 h in data set [2] is under 5 µM.
For `Cc1cc(NCc2ccccn2)n2ncc(-c3ccc(N(C)C)cc3)c2n1` the same measures were 20 µM (≈ 7.17 µg/mL) and under 5 µM.
With `Cc1cc(NCc2ccccn2)n2ncc(-c3ccc(C(F)(F)F)cc3)c2n1`, the MIC99 in data set [1] was over 160 µM. For the same compound, the solubility kinetic at 2 h in data set [2] is under 5 µM.
The compound `Cc1cc(NCc2ccccn2)n2ncc(-c3ccc(C#N)cc3)c2n1` had an MIC99 in data set [1] of over 160 µM. Also, in data set [2], the solubility kinetic at 2 h was under 5 µM.
Compound `Cc1cc(NCc2ccccn2)n2ncc(-c3cccc(F)c3)c2n1` displayed an MIC99 in data set [1] of 2.5 µM (≈ 0.833 µg/mL). For the same compound, the solubility kinetic at 2 h in data set [2] is 5 µM (≈ 1.67 µg/mL).
On to `Cc1cc(NCc2ccccn2)n2ncc(-c3ccc(F)c(Cl)c3)c2n1`, for which the MIC99 was 1.25 µM (≈ 0.46 µg/mL) in data set [1], over 160 µM in data set [3] and over 160 µM in data set [4]. In addition, the solubility kinetic at 2 h in data set [2] is under 5 µM. The IC50 with CHO turned out to be 20 µM.

These data come from ChEMBL document CHEMBL3627697, “Aminopyrazolo[1,5-a]pyrimidines as potential inhibitors of Mycobacterium tuberculosis: Structure activity relationships and ADME characterization” (Bioorg Med Chem, 2015).
